Like-named read-outs stand apart in the source and are kept apart here. *1 amine or outer side, *2 acyl side, *3 side chain or, on linkers, in order; H or OH if unused. Where a SMILES comes first, the peptide text is derived from it. Bridges are numbered along the chain shown (N, C = ends). [ ]: non-standard residue; d: D form. 2Nal = N[C@@H](Cc1ccc2ccccc2c1)C(=O)O; AEF = NCCOc1ccc(C[C@H](N)C(=O)O)cc1; X1 = O=C(Cc1ccc(CN[*:1])cc1)[*:2]; 3Pal = N[C@@H](Cc1cccnc1)C(=O)O; αMeL = CC(C)C[C@](C)(N)C(=O)O; CH2COCH2 = O=C(C[*:1])C[*:2]; Dab = NCC[C@H](N)C(=O)O
Legend:
human IL-23R = target: T1, human IL-23R (Homo sapiens, UniProt Q5VWK5); assay: Binding assay: displacement of fluorophore (TAMRA)-labelled reference compound from human IL-23R (BRET, Nluc-IL23R fusion protein membranes); conditions: for Emax: read-out: % displacement (hIL-23R binding)
T1 construct: Nanoluc luciferase (Nluc); secretion signal encoded by the plasmid (not specified); expressed in transfected cells; crude membranes used in the assay
T1 sequence (Q5VWK5 22-629): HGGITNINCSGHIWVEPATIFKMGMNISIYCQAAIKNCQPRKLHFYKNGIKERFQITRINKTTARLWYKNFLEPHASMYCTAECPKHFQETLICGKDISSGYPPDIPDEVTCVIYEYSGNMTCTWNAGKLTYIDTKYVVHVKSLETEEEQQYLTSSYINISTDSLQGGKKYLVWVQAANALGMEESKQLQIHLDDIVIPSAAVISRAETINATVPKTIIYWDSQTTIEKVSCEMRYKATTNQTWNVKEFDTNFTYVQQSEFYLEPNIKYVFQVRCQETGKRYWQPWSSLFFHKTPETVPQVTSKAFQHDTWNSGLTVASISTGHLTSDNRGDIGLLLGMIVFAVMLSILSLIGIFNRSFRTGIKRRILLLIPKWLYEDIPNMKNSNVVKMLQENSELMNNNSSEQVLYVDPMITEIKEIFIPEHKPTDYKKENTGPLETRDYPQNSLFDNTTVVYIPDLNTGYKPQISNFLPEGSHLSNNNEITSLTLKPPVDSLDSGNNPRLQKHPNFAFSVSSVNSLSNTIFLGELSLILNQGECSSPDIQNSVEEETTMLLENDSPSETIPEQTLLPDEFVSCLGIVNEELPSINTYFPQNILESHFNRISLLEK
Source text: The assay principle relies on Bioluminescence Resonance Energy Transfer (BRET) between a fluorophore-labelled reference compound binding to the IL-23R part of a fusion protein consisting of the IL-23R fused to a Nanoluc luciferase enzyme (Nanoluc). The Nanoluc is placed in the N-terminus in close proximity to the binding domain of the ligand. Upon close proximity between the fluorophore of the fluorophore-labelled compound and the Nanoluc of the fusion protein, bioluminescence energy generated from conversion of a Nanoluc substrate, is transferred to the fluorophore resulting in an increase in BRET. In presence of an unlabelled compound, the unlabelled compound displaces the fluorophore-labelled peptide from its binding site resulting in a decrease in BRET. The concentration for which half of the fluorophore-labelled peptide is displaced by the unlabelled compound depends on the affinity of the compound for the IL-23R, and is termed the IC50 concentration.
The plasmid also contained a gene to confer resistance for the antibiotic hygromycin. A cell line stably expressing the Nluc-IL23R fusion protein was generated by transfection of HEK293 cells with the expression plasmid and selected with hygromycin for 3 weeks in Growth medium consisting of DMEM w/Glutamax-I containing, 10% V/V FBS, 1% V/V P/S, 1 mM Sodium Pyruvate, and 1× NEAA, and 0.3 mg/mL hygromycin. The remaining cells were propagated and considered a stable expressing Nluc-IL23R fusion protein pool clone.
Cells expressing the Nluc-IL23R fusion protein were expanded in Growth medium and membranes prepared by homogenization of a cell pellet from 18 T175 flasks (4° C. in subsequent steps). The cell pellet was lysed Tris 10 mM, 7.5, 1 mM EDTA and protease inhibitors (Complete, Roche) and homogenized using a 15 mL glass-dounce by 50 strokes. The homogenate was spun at spin @1500 rpm for 10 min, the supernatant transferred to SV-34 tubes and spun at 40000 g for 20 min at 4° C. to pellet the crude membranes. The supernatant was then removed, the pellet resuspended in 5 mL buffer containing 50 mM HEPES pH 7.4, 5 mM EGTA, and 5 mM MgCl2, and homogenized. Aliquots of the resuspended and homogenized membranes containing the Nluc-IL23R fusion protein were stored at −80° C. until use.
The plate was sealed with light impermeable plate seals, and incubated on an orbital shaker 400 rpm for 2 hours at room temperature. To determine the BRET ratio, the plate seal was removed and 25 μL of the Nanoluc substrate (Promega N1572) diluted 1:500 was added to each well and incubated for 1-2 minutes on an orbital shaker at 400 rpm. […] The BRET ratio was calculated as the fluorescence from the TAMRA/nanoluc bioluminescence.
Compound potency (IC50) and maximal displacement (% displacement) were estimated by computer-aided curve fitting using a 4-parameter logistic (4PL) non-linear model. The IC50 and maximal for each compound was determined by computer-aided curve fitting using a 4-parameter logistic (4PL) non-linear model.

[1] = Peptide stability in simulated gastric fluid (SGF); assay type: in vitro ADME; conditions: pig, pH 1.2, pepsin, 37° C.
Procedure: (§1) SGF and SIF were prepared based on the United States Pharmacopeia specifications (Test Solutions, United States Pharmacopeia 35, NF 30, 2012). SGF was prepared by dissolving sodium chloride (0.2 g) in 50 mL of water. A volume of 0.7 mL of 10 M HCl was added to adjust the pH of the solution to 1.2 and the volume made up to 100 mL with water. 64 mg porcine pepsin (P7125, Sigma Aldrich) was gently dissolved into 20 mL preheated (37° C.) solution (3.2 g/L) immediately prior to the incubation. SIF was prepared by dissolving monobasic potassium phosphate (0.68 g) in 50 mL of water and adjusting the pH to 6.8 with 1 M NaOH. The volume was subsequently made up to 100 mL with water. 200 mg porcine pancreatin (P1625, Sigma Aldrich) was gently dissolved into 20 mL preheated (37° C.) solution (10 g/L) immediately prior to the incubation.
(§2) To initiate the incubations, 20 μL of peptide stock solution in 50% v/v isopropanol was deposited at the bottom of a well plate and 580 μL matrix solution was added to give a final substrate concentration of 10 μM. The incubation was performed at 37° C. with gentle shaking. 70 μL aliquots were removed at 0, 1 and 4 hours and quenched into 210 μL ice-cold precipitant solution (95% v/v acetonitrile with 0.1% v/v formic acid). After the last timepoint, the sampling plate was mixed for 10 min on a shaking table and centrifuged 10 min at 2200 g. 70 μL resulting supernatant was diluted with 150 μL water, mixed and centrifugated before analysis by liquid chromatography high resolution mass spectrometry. The zero sample was reinjected after the 4-hour sample to confirm that no drift in instrument sensitivity had occurred during the run. Percent remaining at each timepoint was calculated relative to timepoint zero based on absolute peak areas.
(§3) Compounds with a SGF stability (after 4 h) above 70% are considered highly SGF stable. Compounds with a SGF stability (after 4 h) between 30-70% (including 30% and 70%) are considered moderately SGF stable. Compounds with a SGF stability (after 4 h) below 30% are considered SGF unstable. SGF stability values above 100% are due to assay uncertainty and indicate the compound has not degraded.

[2] = tested on: IL-23 mediated STAT3 signalling (DB cells); assay: Functional inhibition of IL-23 mediated STAT3 signalling (phospho-STAT3 Tyr705) in DB cells; assay type: cell-based, human; conditions: for hIL-23 (pSTAT3) antagonist % inhibition: Table 3-2, maximal inhibitory response, EC80 of hIL-23
Outline: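 Phospho-STAT3 in lysed DB cells quantified by MSD kit after 90 min exposure to EC80 human IL-23, following 15 min compound pretreatment (37° C, 5% CO2). IC50 and maximal inhibition derived from curves normalized between IL-23-only and buffer-only controls.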

[3] = Peptide stability in simulated intestinal fluid (SIF); assay type: in vitro ADME; conditions: pig, simulated intestinal fluid, SIF, pH 6.8, pancreatin, 37° C., 10 μM
Procedure: as §1, §2
as §3, with “SIF” for “SGF”

[4] = EC80 of hIL-23, read-out: IC50 (pSTAT3)
[5] = Table 3-2, EC80 of hIL-23, read-out: hIL-23 (pSTAT3) antagonist IC50

Structure (SMILES) | Emax (human IL-23R) [%] | remaining at 4 h, 10 µM [1] [%] | IC50 [2, 4] [nM] | IC50 [2, 5] [nM] | IC50 (human IL-23R) [nM] | remaining at 1 h, 10 µM ([1]; 1 h) [%] | remaining at 1 h, 10 µM ([3]; 1 h) [%] | remaining at 4 h, 10 µM ([3]; 4 h, read-out: SIF (% remaining 4 h)) [%] | hIL-23 (pSTAT3) antagonist % inhibition [2] [%]
CC(C)C[C@]1(C)NC(=O)[C@H](Cc2ccc3ccccc3c2)NC(=O)[C@H](Cc2ccc(OCCN)cc2)NC(=O)[C@@H]2CCNC(=O)CC[C@H](NC(=O)[C@H](CO)NC(=O)Cc3ccc(cc3)CNC(=O)CC[C@@H](C(=O)N[C@@H](CCN)C(=O)N[C@@](C)(Cc3cccnc3)C(N)=O)NC1=O)C(=O)N[C@@H](Cc1c[nH]c3ccccc13)C(=O)N[C@@H](CCC(N)=O)C(=O)N2 [Compound 3, [4-Aminomethyl-phenylacetyl](1c)*SE(2c)WQ[Dab](2c)[Y(2-aminoethoxy)][2-Nal][2-Me-Leu]E(1c)[Dab][2-Me-3-(3-Pyridyl)-Ala]-[NH2]] | 99 | 104 | 1.7 | 1.7 | – | – | – | – | 98
CC(C)C[C@]1(C)NC(=O)[C@H](Cc2ccc3ccccc3c2)NC(=O)[C@H](Cc2ccc(OCCN)cc2)NC(=O)[C@@H]2CCNC(=O)CC[C@H](NC(=O)[C@H](CO)NC(=O)Cc3ccc(cc3)CNC(=O)CC[C@@H](C(=O)N[C@@H](CCN)C(=O)N[C@@H](Cc3c[nH]cn3)C(=O)N[C@@H](Cc3cccnc3)C(N)=O)NC1=O)C(=O)N[C@@H](Cc1c[nH]c3ccccc13)C(=O)N[C@@H](CCC(N)=O)C(=O)N2 [Compound 12, [4-Aminomethyl-phenylacetyl](1c)*SE(2c)WQ[Dab](2c)[Y(2-aminoethoxy)][2-Nal][2-Me-Leu]E(1c)[Dab]H[3-(3-Pyridyl)-Ala]-[NH2]] ([X1]SEWQ[Dab][AEF][2Nal][αMeL]E[Dab]H[3Pal]-NH2; lactam 3-6, N-10) | 104 | – | – | 3.5 | – | 94 | – | – | 100
CNC(=O)[C@H](Cc1cccnc1)NC(=O)[C@H](Cc1c[nH]cn1)NC(=O)[C@@H]1CCC(=O)NCc2ccc(cc2)CC(=O)N[C@@H](CO)C(=O)N[C@H]2CCC(=O)NCC[C@H](NC(=O)[C@H](CCC(N)=O)NC(=O)[C@H](Cc3c[nH]c4ccccc34)NC2=O)C(=O)N[C@@H](Cc2ccc(OCCN)cc2)C(=O)N[C@@H](Cc2ccc3ccccc3c2)C(=O)N[C@@](C)(CC(C)C)C(=O)N1 [Compound 34, [4-Aminomethyl-phenylacetyl](1c)*SE(2c)WQ[Dab](2c)[Y(2-aminoethoxy)][2-Nal][2-Me-Leu]E(1c)H[3-(3-Pyridyl)-Ala]-[NHMe]] ([X1]SEWQ[Dab][AEF][2Nal][αMeL]EH[3Pal]-NHMe; lactam 3-6, N-10) | 90 | 95 | – | – | – | – | – | – | 102
CNC(=O)[C@H](Cc1cccnc1)NC(=O)[C@H](COC)NC(=O)[C@@H]1CCC(=O)NCc2ccc(cc2)CC(=O)N[C@@H](CO)C(=O)N[C@H]2CCC(=O)NCC[C@H](NC(=O)[C@H](CCC(N)=O)NC(=O)[C@H](Cc3c[nH]c4ccccc34)NC2=O)C(=O)N[C@@H](Cc2ccc(OCCN)cc2)C(=O)N[C@@H](Cc2ccc3ccccc3c2)C(=O)N[C@@](C)(CC(C)C)C(=O)N1 [Compound 37, [4-Aminomethyl-phenylacetyl](1c)*SE(2c)WQ[Dab](2c)[Y(2-aminoethoxy)][2-Nal][2-Me-Leu]E(1c)[Ser(OMe)][3-(3-Pyridyl)-Ala]-[NHMe]] | 95 | 102 | – | 0.069 | – | – | – | – | 100

The next lines start with results.

Emax (human IL-23R) [%] | remaining at 4 h, 10 µM [1] [%] | IC50 [2, 4] [nM] | IC50 [2, 5] [nM] | IC50 (human IL-23R) [nM] | remaining at 1 h, 10 µM ([1]; 1 h) [%] | remaining at 1 h, 10 µM ([3]; 1 h) [%] | remaining at 4 h, 10 µM ([3]; 4 h, read-out: SIF (% remaining 4 h)) [%] | Structure (SMILES) | hIL-23 (pSTAT3) antagonist % inhibition [2] [%]
111 | 103 | 6.5 | 6.5 | 0.17 | – | – | – | CC(C)C[C@]1(C)NC(=O)[C@H](Cc2ccc3ccccc3c2)NC(=O)[C@H](Cc2ccc(OCCN)cc2)NC(=O)[C@@H]2CCNC(=O)CC[C@H](NC(=O)[C@H](CO)NC(=O)Cc3ccc(cc3)CNC(=O)CC[C@@H](C(=O)N[C@@H](CCN)C(=O)N(C)[C@@H](Cc3cccnc3)C(N)=O)NC1=O)C(=O)N[C@@H](Cc1c[nH]c3ccccc13)C(=O)N[C@@H](CCC(N)=O)C(=O)N2 [Compound 4, [4-Aminomethyl-phenylacetyl](1c)*SE(2c)WQ[Dab](2c)[Y(2-aminoethoxy)][2-Nal][2-Me-Leu]E(1c)[Dab][N—Me-3-(3-Pyridyl)-Ala]-[NH2]] | 100
104 | 102 | – | – | – | – | – | – | CNC(=O)[C@H](Cc1cccnc1)NC(=O)[C@H](CCN)NC(=O)[C@@H]1CCC(=O)NCc2ccc(cc2)CC(=O)N[C@@H](C)C(=O)N[C@H]2CCC(=O)NCC[C@H](NC(=O)[C@H](CCC(N)=O)NC(=O)[C@H](Cc3c[nH]c4ccccc34)NC2=O)C(=O)N[C@@H](CCc2ccccc2)C(=O)N[C@@H](Cc2ccc3ccccc3c2)C(=O)NC(C)(C)C(=O)N1 [Compound 41, [4-Aminomethyl-phenylacetyl](1c)*AE(2c)WQ[Dab](2c)[hPhe][2-Nal][Aib]E(1c)[Dab][3-(3-Pyridyl)-Ala]-[NHMe]] | –
– | – | – | – | – | – | 78 | 91 | CNC(=O)[C@H](Cc1cccnc1)NC(=O)[C@H](CCN)NC(=O)[C@@H]1CCC(=O)NCc2ccc(cc2)CC(=O)N[C@@H](C)C(=O)N[C@H]2CCC(=O)NCC[C@H](NC(=O)[C@H](CCC(N)=O)NC(=O)[C@H](Cc3c[nH]c4ccccc34)NC2=O)C(=O)N[C@@H](Cc2ccc(OCCN)cc2)C(=O)N[C@@H](Cc2c[nH]c3ncccc23)C(=O)NC(C)(C)C(=O)N1 [Compound 44, [4-Aminomethyl-phenylacetyl](1c)*AE(2c)WQ[Dab](2c)[Y(2-aminoethoxy)][7-AzaTrp][Aib]E(1c)[Dab][3-(3-Pyridyl)-Ala]-[NHMe]] | –
97 | – | – | – | – | – | – | – | CC(=O)N[C@H]1CCCCNC(=O)CC[C@@H](C(=O)N[C@@H](CCN)C(=O)N[C@@H](Cc2cccnc2)C(N)=O)NC(=O)[C@](C)(CC(C)C)NC(=O)[C@H](Cc2ccc3ccccc3c2)NC(=O)[C@H](Cc2ccc(OCCN)cc2)NC(=O)[C@@H]2CSCC(=O)CSC[C@H](NC(=O)[C@H]([C@@H](C)O)NC1=O)C(=O)N[C@@H](Cc1c[nH]c3ccccc13)C(=O)N[C@@H](CCC(N)=O)C(=O)N2 [Ref 155, [Ac]-K(1c)TC(2a)WQC(2a)[Y(2-aminoethoxy)][2-Nal][2-Me-Leu]E(1c)[Dab][3-(3-Pyridyl)-Ala]-[NH2], reference compound] (Ac-KTCWQC[AEF][2Nal][αMeL]E[Dab][3Pal]-NH2; lactam 1-10; linker 3-6 via CH2COCH2) | 100

— patent US20260327264A1, “PEPTIDE INHIBITORS OF INTERLEUKIN-23 RECEPTOR” (Zealand Pharma A/S, priority 2023, published 2026)
